According to patent US5681832A, “Aroylaniline compounds, pharmaceutical compositions, and methods of using same to inhibit viral activity” (priority 1995, dated 1997):
Where a name gives a salt, the structure may show the parent alone. Read-outs that look alike come from different tables or passages of the source.

How the values were obtained:
HIV-1 = assay: in vitro anti-HIV screening (NCI XTT soluble-formazan assay, protection of HIV-1-infected CEM T4 lymphocytes from cytolysis); format: cell-based; conditions: for EC50: HIV-1-infected CEM cells, 6 days, approximate values, read-out: EC50 (Molar), 50% effective concentration; for inhibition at 200 µM / inhibition at 20 µM / inhibition at 2 µM / inhibition at 0.2 µM / inhibition at 63.2 µM / inhibition at 6.33 µM / inhibition at 0.634 µM / inhibition at 0.0635 µM: read-out: Percent of Protection; for inhibition at 2 µM / activity at 2 µM: 2.00 × 10^-6 Molar; for inhibition at 0.2 µM / activity at 0.2 µM: 2.00 × 10^-7 Molar; for inhibition at 63.2 µM / activity at 63.2 µM: 6.32 × 10^-5 Molar; for inhibition at 6.33 µM / activity at 6.33 µM: 6.33 × 10^-6 Molar; for inhibition at 0.634 µM / activity at 0.634 µM: 6.34 × 10^-7 Molar; for inhibition at 0.0635 µM / activity at 0.0635 µM: 6.35 × 10^-8 Molar; for activity at 200 µM / activity at 20 µM / activity at 2 µM / activity at 0.2 µM / activity at 63.2 µM / activity at 6.33 µM / activity at 0.634 µM / activity at 0.0635 µM: Human immunodeficiency virus 1, CEM-T4, read-out: Percent of Control, Infected; for TI50 (IC/EC), therapeutic index: IC50/EC50; for Conclusion: NCI anti-HIV screen
Excerpt: The aroylaniline compounds of the present invention were subjected to in vitro screening to determine their anti-HIV activity.
The National Cancer Institute's procedure for testing for agents active against Human Immunodeficiency Virus (HIV) (Weislow, O. W. et al., "New soluble-formazan assay for HIV-1 cytopathic effects: application to high-flux screening of synthetic and natural products for AIDS-antiviral activity," J. Natl Cancer Inst., 81, 577-586 (1989)) is designed to detect agents acting at any stage of the virus reproductive cycle. The assay includes the killing of T4 lymphocytes by HIV. Pursuant to the test, small amounts of HIV are added to cells, and a complete cycle of virus reproduction is necessary to obtain the required cell killing. Agents that interact with virions, cells, or virus gene-products to interfere with viral activities will protect cells from cytolysis. The system is thus designed to detect anti-HIV activity. However, compounds that are chemically labile or are rapidly metabolized in the culture conditions may not show activity in this screen. All tests are compared with at least one positive (e.g., AZT-treated) control done at the same time under identical conditions.
(§1) 1. Candidate agent is dissolved in dimethyl sulfoxide (unless otherwise instructed) and then diluted 1:100 in cell culture medium before preparing serial half-log10 dilutions which are then to 96-well microfilter plates. T4 lymphocytes (CEM cell line) are added, and after a brief interval HIV-1 is added to all wells, resulting in a 1:200 final dilution […]. Uninfected cells with the compound serve as a toxicity control, and infected and uninfected cells without the compound serve as basic controls.
(§2) 2. Cultures are incubated at 37° C. in a 5% carbon dioxide atmosphere for 6 days.
(§3) 3. The tetrazolium salt, XTT, is added to all wells, and cultures are incubated to allow formazan color development by viable cells.
(§4) 4. Individual wells are analyzed spectrophotometrically to quantitate formazan production, and in addition are viewed microscopically for detection of viable cells and confirmation of protective activity.
(§5) 5. Drug-tested virus-infected cells are compared with drug-treated noninfected cells and with other appropriate controls (untreated infected and untreated noninfected cells, drug-containing wells without cells, etc.) on the same plate.
6. Data are reviewed in comparison with other tests done at the same time and a determination about activity is made.
The aroylaniline compounds of the present invention were tested for anti-HIV activity according to the above procedure. FIGS. 1-6 represent test results of the aroylaniline compounds of Compounds 1, 3, 13, 14, 29 and 32.
(§6) FIGS. 1 to 6 display a plot of the log10 of the concentrations (as μg/mL or molar as shown) of the aroylaniline compounds, Compounds 1, 3, 13, 14, 29 and 32, against the measured test values expressed as a percentage of the uninfected, untreated control values. The solid line depicts the percentage of surviving HIV-infected cells treated with sample (at the indicated concentration) relative to uninfected, untreated controls. Thus, the solid line expresses the anti-HIV activity of the compound. The dashed line depicts the percentage of surviving uninfected cells treated with the compound relative to the same uninfected, untreated controls. Thus, the dashed line expresses the growth inhibitory properties of the compound. The viral cytopathic effect […] is indicated by a dotted reference line. […] Survival values of this parameter less than 50% are considered acceptable in the current protocol. Approximate values for 50% effective concentration (EC50) have been calculated for each test and are set forth for these Compounds in Tables 2-7, respectively.

[1] = system: T4 lymphocytes (CEM cell line); assay: toxicity control: survival of uninfected T4 lymphocytes (CEM cell line) treated with compound (growth inhibition); format: cell-based; conditions: for IC50: read-out: IC50 (Molar); for activity at 200 µM / activity at 20 µM / activity at 2 µM / activity at 0.2 µM / activity at 63.2 µM / activity at 6.33 µM / activity at 0.634 µM / activity at 0.0635 µM: read-out: Percent of Control, Uninfected
Experimental: as §1, §2, §3, §4, §5, §6

[2] = Human immunodeficiency virus 1, CCRF-CEM, 144 h
[3] = Human immunodeficiency virus 1, CCRF-CEM, 2.00 × 10^-4 Molar
[4] = Human immunodeficiency virus 1, CCRF-CEM, 2.00 × 10^-5 Molar
[5] = Human immunodeficiency virus 1, CCRF-CEM

## O=C(Nc1ccc(C=Cc2ccc(NC(=O)c3cc(S(=O)(=O)O)c4cccnc4c3O)cc2S(=O)(=O)O)c(S(=O)(=O)O)c1)c1cc(S(=O)(=O)O)c2cccnc2c1O [Compound 1, 4,4'-di(8-hydroxy-5-sulfo-7-quinolinecarboxyamido)stilbene-2,2'disulfonic acid tetrasodium salt]
HIV-1; [2]
  EC50: 1.44 µM
HIV-1; [3]
  inhibition at 200 µM: -26%
HIV-1; [4]
  inhibition at 20 µM: 107%
HIV-1; [5]
  inhibition at 2 µM: 68.6%
  inhibition at 0.2 µM: 5.09%
  inhibition at 63.2 µM: 85.6%
  inhibition at 6.33 µM: 121%
  inhibition at 0.634 µM: 3.41%
  inhibition at 0.0635 µM: -5.09%
HIV-1; 2.00 × 10^-4 Molar
  activity at 200 µM: 4.26%
HIV-1; 2.00 × 10^-5 Molar
  activity at 20 µM: 105%
HIV-1
  activity at 2 µM: 76.2%
  activity at 0.2 µM: 27.9%
  activity at 63.2 µM: 89.1%
  activity at 6.33 µM: 116%
  activity at 0.634 µM: 26.6%
  activity at 0.0635 µM: 20.1%
  TI50 (IC/EC), therapeutic index: 8.28 × 10^+1
  Conclusion: CONFIRMED ACTIVE
[1]; Homo sapiens, CCRF-CEM, 144 h, uninfected CEM cells, 6 days
  IC50: 120 µM
[1]; Homo sapiens, CCRF-CEM, 2.00 × 10^-4 Molar
  activity at 200 µM: 6.47%
[1]; Homo sapiens, CCRF-CEM, 2.00 × 10^-5 Molar
  activity at 20 µM: 109%
[1]; Homo sapiens, CCRF-CEM, 2.00 × 10^-6 Molar
  activity at 2 µM: 106%
[1]; Homo sapiens, CCRF-CEM, 2.00 × 10^-7 Molar
  activity at 0.2 µM: 102%
[1]; Homo sapiens, CCRF-CEM, 6.32 × 10^-5 Molar
  activity at 63.2 µM: 104%
[1]; Homo sapiens, CCRF-CEM, 6.33 × 10^-6 Molar
  activity at 6.33 µM: 117%
[1]; Homo sapiens, CCRF-CEM, 6.34 × 10^-7 Molar
  activity at 0.634 µM: 105%
[1]; Homo sapiens, CCRF-CEM, 6.35 × 10^-8 Molar
  activity at 0.0635 µM: 97.6%

## O=C(O)CSCc1cc(C(=O)Nc2ccc(C=Cc3ccc(NC(=O)c4cc(CSCC(=O)O)c5cccnc5c4O)cc3S(=O)(=O)O)c(S(=O)(=O)O)c2)c(O)c2ncccc12 [Compound 14]
HIV-1; [2]
  EC50: 0.805 µM
HIV-1; [3]
  inhibition at 200 µM: 27.6%
HIV-1; [4]
  inhibition at 20 µM: 16.6%
HIV-1; [5]
  inhibition at 2 µM: 147%
  inhibition at 0.2 µM: 17.6%
  inhibition at 63.2 µM: 6.56%
  inhibition at 6.33 µM: 151%
  inhibition at 0.634 µM: 25%
  inhibition at 0.0635 µM: 16%
HIV-1; 2.00 × 10^-4 Molar
  activity at 200 µM: 29.8%
HIV-1; 2.00 × 10^-5 Molar
  activity at 20 µM: 19.1%
HIV-1
  activity at 2 µM: 146%
  activity at 0.2 µM: 20%
  activity at 63.2 µM: 9.36%
  activity at 6.33 µM: 149%
  activity at 0.634 µM: 27.2%
  activity at 0.0635 µM: 18.5%
  TI50 (IC/EC), therapeutic index: 2.05 × 10^+2
  Conclusion: CONFIRMED ACTIVE
[1]; Homo sapiens, CCRF-CEM, 144 h
  IC50: 16.5 µM
[1]; Homo sapiens, CCRF-CEM
  activity at 0.0635 µM: 80.2%
  activity at 0.2 µM: 88.9%
  activity at 0.634 µM: 122%
  activity at 2 µM: 206%
  activity at 6.33 µM: 221%
  activity at 20 µM: 15.5%
  activity at 63.2 µM: 2.52%
  activity at 200 µM: -0.84%

## N,N'-Bis(4-amino-2-sulfobenzoyl)-4,4'-diaminostilbene-2,2-disulfonic acid tetrasodium salt [Compound 32]
HIV-1; 2.00 × 10^-4 Molar
  Percent of Control, Infected: 61.85%
HIV-1; 2.00 × 10^-4 Molar, 200 µM
  Percent of Protection: 52.90%
HIV-1; 2.00 × 10^-5 Molar
  Percent of Control, Infected: 112.68%
HIV-1; 2.00 × 10^-5 Molar, 20 µM
  Percent of Protection: 115.65%
HIV-1; 2.01 × 10^-6 Molar
  Percent of Control, Infected: 97.97%
HIV-1; 2.01 × 10^-6 Molar, 2.01 µM
  Percent of Protection: 97.49%
HIV-1; 2.01 × 10^-7 Molar
  Percent of Control, Infected: 14.10%
HIV-1; 2.01 × 10^-7 Molar, 0.201 µM
  Percent of Protection: -6.05%
HIV-1; 6.33 × 10^-5 Molar
  Percent of Control, Infected: 115.38%
HIV-1; 6.33 × 10^-5 Molar, 63.3 µM
  Percent of Protection: 118.99%
HIV-1; 6.34 × 10^-6 Molar
  Percent of Control, Infected: 105.65%
HIV-1; 6.34 × 10^-6 Molar, 6.34 µM
  Percent of Protection: 106.98%
HIV-1; 6.35 × 10^-7 Molar
  Percent of Control, Infected: 26.85%
HIV-1; 6.35 × 10^-7 Molar, 0.635 µM
  Percent of Protection: 9.69%
HIV-1; 6.36 × 10^-8 Molar
  Percent of Control, Infected: 17.12%
HIV-1; 6.36 × 10^-8 Molar, 0.0636 µM
  Percent of Protection: -2.32%
HIV-1
  EC50: 1.08 µM
  Conclusion: CONFIRMED ACTIVE
[1]; 2.00 × 10^-4 Molar
  Percent of Control, Uninfected: 35.45%
[1]; 2.00 × 10^-5 Molar
  Percent of Control, Uninfected: 98.84%
[1]; 2.01 × 10^-6 Molar
  Percent of Control, Uninfected: 98.97%
[1]; 2.01 × 10^-7 Molar
  Percent of Control, Uninfected: 82.40%
[1]; 6.33 × 10^-5 Molar
  Percent of Control, Uninfected: 95.50%
[1]; 6.34 × 10^-6 Molar
  Percent of Control, Uninfected: 94.34%
[1]; 6.35 × 10^-7 Molar
  Percent of Control, Uninfected: 95.11%
[1]; 6.36 × 10^-8 Molar
  Percent of Control, Uninfected: 83.94%
[1]; uninfected CEM cells, 6 days
  IC50: 151 µM
